{"source": "patent US20100298141A1", "about": "“SUBSTITUTED PYRIDINE N-OXIDE HERBICIDES” (E. I. DU PONT DE NEMOURS AND COMPANY, priority 2007, published 2010)", "key": {"[1]": {"tested_on": "Russian thistle", "experiment": "Test C pre-/postemergence test", "format": "in vivo, Salsola kali", "procedure,_shortened": "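Test chemicals were formulated with surfactant in a non-phytotoxic solvent and sprayed both on freshly planted seeds (preemergence) and on 1- to 4-leaf plants of 2–18 cm (postemergence). Flooded-paddy pots received compound directly into 3 cm of standing water, maintained for the test.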"}, "[2]": {"tested_on": "windgrass", "experiment": "Test C pre-/postemergence test", "format": "in vivo, Apera spica-venti", "conditions": "Postemergence; for Plant response rating, Windgrass: scale 0 to 100, 0 no effect, 100 complete control"}, "[3]": {"tested_on": "green foxtail", "experiment": "Test F preemergence test", "format": "in vivo, Setaria viridis", "conditions": "scale 0 to 100", "procedure,_shortened": "(§1)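 Compounds in a non-phytotoxic solvent formulation with surfactant were applied before emergence after sowing, or, for sugarcane, also postemergence. Evaluation was visual, against controls, after 14 to 21 greenhouse days.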"}, "[4]": {"tested_on": "mustard", "experiment": "Test F preemergence test", "format": "in vivo, Brassica nigra", "conditions": "scale 0 to 100", "procedure,_shortened": "as §1"}, "[5]": {"tested_on": "guineagrass", "experiment": "Test F preemergence test", "format": "in vivo, Panicum maximum", "conditions": "scale 0 to 100", "procedure,_shortened": "as §1"}, "[6]": {"tested_on": "dallisgrass", "experiment": "Test F preemergence test", "format": "in vivo, Paspalum dilatatum", "conditions": "scale 0 to 100", "procedure,_shortened": "as §1"}, "[7]": {"tested_on": "barnyardgrass", "experiment": "Test F preemergence test", "format": "in vivo, Echinochloa crus-galli", "procedure,_shortened": "as §1"}, "[8]": {"tested_on": "southern sandbur", "experiment": "Test F preemergence test", "format": "in vivo, Cenchrus echinatus", "conditions": "scale 0 to 100", "procedure,_shortened": "as §1"}, "[9]": {"tested_on": "prickly sida", "experiment": "Test F preemergence test", "format": "in vivo, Sida spinosa", "conditions": "scale 0 to 100", "procedure,_shortened": "as §1"}, "[10]": {"tested_on": "common purslane", "experiment": "Test F preemergence test", "format": "in vivo, Portulaca oleracea", "conditions": "scale 0 to 100", "procedure,_shortened": "as §1"}, "[11]": {"tested_on": "common groundsel", "experiment": "Test F preemergence test", "format": "in vivo, Senecio vulgaris", "conditions": "scale 0 to 100", "procedure,_shortened": "as §1"}, "[12]": {"tested_on": "itchgrass", "experiment": "Test F preemergence test", "format": "in vivo, Rottboellia cochinchinensis", "conditions": "scale 0 to 100", "procedure,_shortened": "as §1"}, "[13]": {"tested_on": "quackgrass", "experiment": "Test F preemergence test", "format": "in vivo, Elytrigia repens", "conditions": "scale 0 to 100", "procedure,_shortened": "as §1"}, "[14]": {"tested_on": "field bindweed", "experiment": "Test F preemergence test", "format": "in vivo, Convolvulus arvensis", "conditions": "scale 0 to 100", "procedure,_shortened": "as §1"}, "[15]": {"tested_on": "common mallow", "experiment": "Test F preemergence test", "format": "in vivo, Malva sylvestris", "conditions": "scale 0 to 100", "procedure,_shortened": "as §1"}, "[16]": {"conditions": "62 g ai/ha, Preemergence, scale 0 to 100"}}, "data": [{"smiles": "Cn1nc(C(F)(F)F)c(C[S+]([O-])c2ccc(Cl)c[n+]2[O-])c1OCC(F)(F)F", "note": "(racemic) [Compound 62]", "values": [{"measurement": "Russian Thistle plant response rating", "setting": "[1]; [16]", "result": 100}, {"measurement": "Russian Thistle plant response rating", "setting": "[1]; 125 g ai/ha, preemergence, scale 0 (no effect) to 100 (complete control)", "result": 100}, {"measurement": "Plant response rating, Russian Thistle", "setting": "[1]; Preemergence, 31 g ai/ha, scale 0 to 100 (0 no effect, 100 complete control)", "result": 100}, {"measurement": "Russian Thistle plant response rating", "setting": "[1]; preemergence, 250 g ai/ha, scale 0 (no effect) to 100 (complete control)", "result": 100}, {"measurement": "Plant response rating (0 to 100), Windgrass", "setting": "[2]; 31 g ai/ha", "result": 70}, {"measurement": "Plant response rating (0 to 100), Windgrass", "setting": "[2]; 62 g ai/ha", "result": 80}, {"measurement": "Plant response rating, Windgrass", "setting": "[2]; 125 g ai/ha", "result": 90}, {"measurement": "Plant response rating, Windgrass", "setting": "[2]; 250 g ai/ha", "result": 100}, {"measurement": "Plant response rating, Foxtail, Green", "setting": "[3]; 16 g ai/ha, preemergence", "result": 20}, {"measurement": "Foxtail, Green plant response rating", "setting": "[3]; 62 g ai/ha, Preemergence", "result": 80}, {"measurement": "Foxtail, Green plant response rating", "setting": "[3]; 125 g ai/ha, preemergence", "result": 100}, {"measurement": "Plant response rating, Foxtail, Green", "setting": "[3]; Preemergence, 31 g ai/ha", "result": 65}, {"measurement": "Plant response rating, Black Mustard", "setting": "[4]; 16 g ai/ha, preemergence", "result": 20}, {"measurement": "Black Mustard plant response rating", "setting": "[4]; 62 g ai/ha, Preemergence", "result": 90}, {"measurement": "Black Mustard plant response rating", "setting": "[4]; 125 g ai/ha, preemergence", "result": 98}, {"measurement": "Plant response rating, Black Mustard", "setting": "[4]; Preemergence, 31 g ai/ha", "result": 0}, {"measurement": "Plant response rating, Guineagrass", "setting": "[5]; 16 g ai/ha, preemergence", "result": 70}, {"measurement": "Guineagrass plant response rating", "setting": "[5]; 62 g ai/ha, Preemergence", "result": 100}, {"measurement": "Guineagrass plant response rating", "setting": "[5]; 125 g ai/ha, preemergence", "result": 100}, {"measurement": "Plant response rating, Guineagrass", "setting": "[5]; Preemergence, 31 g ai/ha", "result": 80}, {"measurement": "Plant response rating, Dallisgrass", "setting": "[6]; 16 g ai/ha, preemergence", "result": 0}, {"measurement": "Dallisgrass plant response rating", "setting": "[6]; 62 g ai/ha, Preemergence", "result": 98}, {"measurement": "Dallisgrass plant response rating", "setting": "[6]; 125 g ai/ha, preemergence", "result": 98}, {"measurement": "Plant response rating, Dallisgrass", "setting": "[6]; Preemergence, 31 g ai/ha", "result": 60}, {"measurement": "Plant response rating, Barnyardgrass", "setting": "[7]; 16 g ai/ha, preemergence, scale 0 to 100 (0 no effect, 100 complete control)", "result": 30}, {"measurement": "Barnyardgrass plant response rating", "setting": "[7]; [16]", "result": 100}, {"measurement": "Barnyardgrass plant response rating", "setting": "[7]; 125 g ai/ha, preemergence, scale 0 to 100", "result": 100}, {"measurement": "Plant response rating, Barnyardgrass", "setting": "[7]; Preemergence, 31 g ai/ha, scale 0 to 100", "result": 75}, {"measurement": "Plant response rating, Sandbur", "setting": "[8]; 16 g ai/ha, preemergence", "result": 25}, {"measurement": "Sandbur plant response rating", "setting": "[8]; 125 g ai/ha, preemergence", "result": 98}, {"measurement": "Plant response rating, Sandbur", "setting": "[8]; Preemergence, 62 g ai/ha", "result": 98}, {"measurement": "Plant response rating, Sandbur", "setting": "[8]; Preemergence, 31 g ai/ha", "result": 75}, {"measurement": "Plant response rating, Prickly Sida", "setting": "[9]; 16 g ai/ha, preemergence", "result": 15}, {"measurement": "Prickly Sida plant response rating", "setting": "[9]; 62 g ai/ha, Preemergence", "result": 75}, {"measurement": "Prickly Sida plant response rating", "setting": "[9]; 125 g ai/ha, preemergence", "result": 95}, {"measurement": "Plant response rating, Prickly Sida", "setting": "[9]; Preemergence, 31 g ai/ha", "result": 65}, {"measurement": "Plant response rating, Purslane", "setting": "[10]; 16 g ai/ha, preemergence", "result": 15}, {"measurement": "Purslane plant response rating", "setting": "[10]; 62 g ai/ha, Preemergence", "result": 60}, {"measurement": "Purslane plant response rating", "setting": "[10]; 125 g ai/ha, preemergence", "result": 75}, {"measurement": "Plant response rating, Purslane", "setting": "[10]; Preemergence, 31 g ai/ha", "result": 40}, {"measurement": "Plant response rating, Groundsel", "setting": "[11]; 16 g ai/ha, preemergence", "result": 0}, {"measurement": "Groundsel plant response rating", "setting": "[11]; 62 g ai/ha, Preemergence", "result": 80}, {"measurement": "Groundsel plant response rating", "setting": "[11]; 125 g ai/ha, preemergence", "result": 90}, {"measurement": "Plant response rating, Groundsel", "setting": "[11]; Preemergence, 31 g ai/ha", "result": 70}, {"measurement": "Plant response rating, Itchgrass", "setting": "[12]; 16 g ai/ha, preemergence", "result": 50}, {"measurement": "Itchgrass plant response rating", "setting": "[12]; 62 g ai/ha, Preemergence", "result": 90}, {"measurement": "Itchgrass plant response rating", "setting": "[12]; 125 g ai/ha, preemergence", "result": 98}, {"measurement": "Plant response rating, Itchgrass", "setting": "[12]; Preemergence, 31 g ai/ha", "result": 75}, {"measurement": "Plant response rating, Quackgrass", "setting": "[13]; 16 g ai/ha, preemergence", "result": 40}, {"measurement": "Quackgrass plant response rating", "setting": "[13]; 62 g ai/ha, Preemergence", "result": 75}, {"measurement": "Quackgrass plant response rating", "setting": "[13]; 125 g ai/ha, preemergence", "result": 98}, {"measurement": "Plant response rating, Quackgrass", "setting": "[13]; Preemergence, 31 g ai/ha", "result": 75}, {"measurement": "Plant response rating, Field Bindweed", "setting": "[14]; 16 g ai/ha, preemergence", "result": 0}, {"measurement": "Field Bindweed plant response rating", "setting": "[14]; 62 g ai/ha, Preemergence", "result": 75}, {"measurement": "Field Bindweed plant response rating", "setting": "[14]; 125 g ai/ha, preemergence", "result": 75}, {"measurement": "Plant response rating, Field Bindweed", "setting": "[14]; Preemergence, 31 g ai/ha", "result": 75}, {"measurement": "Plant response rating, Mallow", "setting": "[15]; 16 g ai/ha, preemergence", "result": 0}, {"measurement": "Mallow plant response rating", "setting": "[15]; 62 g ai/ha, Preemergence", "result": 98}, {"measurement": "Mallow plant response rating", "setting": "[15]; 125 g ai/ha, preemergence", "result": 100}, {"measurement": "Plant response rating, Mallow", "setting": "[15]; Preemergence, 31 g ai/ha", "result": 80}]}]}
